Measured values from patent publication US10125100B2, “Kinase inhibitors” (Respivert Limited, priority 2014, dated 2018).
pIC50: −log10 of the molar value.

Tests used:
[1] = target: Syk (Homo sapiens (Human), UniProt P43405); test: Syk enzyme inhibition, Z-LYTE FRET; type: biochemical
Experimental: (§1) The enzyme inhibitory activities of compounds disclosed herein are determined by FRET using synthetic peptides labelled with both donor and acceptor fluorophores (Z-LYTE, Invitrogen Ltd., Paisley, UK).
(§2) The relevant enzyme (3000 ng/mL or 2000 ng/mL respectively, 2.5 μL) is incubated with the test compound (either 1 μg/mL, 0.1 μg/mL, 0.01 μg/mL, or 0.001 μg/mL, 2.5 μL each) for 2 hr at RT. The FRET peptides (8 μM, 2.5 μL), and appropriate ATP solutions (2.5 μL, 800 μM for c-Src, and 60 μM ATP for Syk) are then added to the enzymes/compound mixtures and the mixture incubated for 1 hr. Development reagent (protease, 5 μL) is added for 1 hr prior to detection in a fluorescence microplate reader (Varioskan® Flash, ThermoFisher Scientific).
(§3) In all cases, the site-specific protease cleaves non-phosphorylated peptide only and eliminates the FRET signal. Phosphorylation levels of each reaction are calculated using the ratio of coumarin emission (donor) over fluorescein emission (acceptor), for which high ratios indicate high phosphorylation and low ratios indicate low phosphorylation levels.

[2] = target: c-Src (Homo sapiens (Human), UniProt P12931); test: c-Src enzyme inhibition, Z-LYTE FRET; type: biochemical
Experimental: as §1
as §2, with “The inhibitory activities of compounds of the invention against c-Src and Syk enzymes (Invitrogen), are evaluated in a similar fashion to that described hereinabove. The relevant” for “The relevant”
as §3

[3] = tested on: Jurkat cells; test: (r) Cell cytotoxicity assay; type: cell-based, human; settings: 24 hours
In short: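 Jurkat cells (1×10^5/well, RPMI + 10% FBS) exposed to compound at 20, 5 or 1 μg/mL final (1.0% DMSO control) for 24 h at 37° C., 5% CO2. Then stained with 7.5 μg/mL propidium iodide for 15 min. % viability = PI-negative cells by flow cytometry, normalized to DMSO.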

Sequence of c-Src (P12931 whole entry, looked up): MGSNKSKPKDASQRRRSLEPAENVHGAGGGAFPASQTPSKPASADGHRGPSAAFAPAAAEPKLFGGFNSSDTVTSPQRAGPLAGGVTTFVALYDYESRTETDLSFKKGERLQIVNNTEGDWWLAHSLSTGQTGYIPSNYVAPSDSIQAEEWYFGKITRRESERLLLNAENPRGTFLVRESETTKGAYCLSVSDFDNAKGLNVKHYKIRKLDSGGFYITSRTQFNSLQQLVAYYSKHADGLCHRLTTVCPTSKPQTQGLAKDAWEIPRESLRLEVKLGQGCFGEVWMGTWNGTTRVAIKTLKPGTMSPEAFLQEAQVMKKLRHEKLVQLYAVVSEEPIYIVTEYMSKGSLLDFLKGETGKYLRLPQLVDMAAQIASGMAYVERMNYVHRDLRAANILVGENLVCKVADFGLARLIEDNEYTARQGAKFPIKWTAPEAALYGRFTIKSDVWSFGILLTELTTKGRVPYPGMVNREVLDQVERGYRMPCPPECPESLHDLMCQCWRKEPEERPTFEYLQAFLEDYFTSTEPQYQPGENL

Structure (SMILES) | pIC50 [1] | pIC50 [2] | % Viability at 1 μg/mL [3] [%] | % Viability at 5 μg/mL [3] [%] | % Viability at 20 μg/mL [3] [%]
COc1cc(Nc2cc(Oc3ccc(NC(=O)Nc4cc(C(C)(C)C)cc(NC(=O)COP(=O)(O)O)c4OC)c4ccccc34)ccn2)ccc1C(=O)NCCN1CC[S+]([O-])CC1 [17(cp), 2-((5-(tert-Butyl)-2-methoxy-3-(3-(4-((2-((3-methoxy-4-((2-(1-oxidothiomorpholino)-ethyl)carbamoyl)phenyl)amino)pyridin-4-yl)oxy)naphthalen-1-yl)ureido)phenyl)amino)-2-oxoethyl dihydrogen phosphate] | 6.41 | 7.70 | 97.6 | 96.9 | 94.7
COc1cc(Nc2cc(Oc3ccc(NC(=O)Nc4cc(C(C)(C)C)cc(NS(C)(=O)=O)c4OC)c4ccccc34)ccn2)ccc1S(=O)(=O)N(C)CCN1CCOCC1 [17(o), 1-[5-tert-butyl-3-(methanesulfonamido)-2-methoxy-phenyl]-3-[4-[[2-[3-methoxy-4-[methyl(2-morpholinoethyl)sulfamoyl]anilino]-4-pyridyl]oxy]-1-naphthyl]urea] | 6.02 | 6.63 | – | – | –
COc1cc(Nc2cc(Oc3ccc(NC(=O)Nc4cc(C(C)(C)C)cc(NS(C)(=O)=O)c4OC)c4ccccc34)ccn2)ccc1S(=O)(=O)N(C)CCCN1CCOCC1 [Example 13, 1-[5-tert-Butyl-3-(methanesulfonamido)-2-methoxy-phenyl]-3-[4-[[2-[3-methoxy-4-[methyl(3-morpholinopropyl)sulfamoyl]anilino]-4-pyridyl]oxy]-1-naphthyl]urea] | 6.09 | 6.82 | – | – | –
COc1cc(Nc2cc(Oc3ccc(NC(=O)Nc4cc(C(C)(C)C)cc(NS(C)(=O)=O)c4OC)c4ccccc34)ccn2)cc(OC)c1C(=O)NCC1CCN(C)CC1 [17(ca), 4-((4-((4-(3-(5-(tert-Butyl)-2-methoxy-3-(methylsulfonamido)phenyl)ureido)naphthalen-1-yl)oxy)pyridin-2-yl)amino)-2,6-dimethoxy-N-((1-methylpiperidin-4-yl)methyl)benzamide] | – | – | 92.6 | 94.0 | 75.8
COc1cc(Nc2cc(Oc3ccc(NC(=O)Nc4cc(C(C)(C)C)cc(NS(C)(=O)=O)c4OC)c4ccccc34)ccn2)ccc1S(=O)(=O)N(C)CCN1CCN(C)CC1 [17(bb), 4-((4-((4-(3-(5-(tert-Butyl)-2-methoxy-3-(methylsulfonamido)phenyl)ureido)naphthalen-1-yl)oxy)pyridin-2-yl)amino)-2-methoxy-N-methyl-N-(2-(4-methylpiperazin-1-yl)ethyl)benzenesulfonamide] | – | – | 90.9 | 19.2 | 0.2
COc1cc(Nc2nccc(Oc3ccc(NC(=O)Nc4cc(C(C)(C)C)cc(NS(C)(=O)=O)c4OC)c4ccccc34)n2)ccc1C(=O)NCCCN1CCOCC1 [17(ao), 4-((4-((4-(3-(5-(tert-Butyl)-2-methoxy-3-(methylsulfonamido)phenyl)ureido)naphthalen-1-yl)oxy)pyrimidin-2-yl)amino)-2-methoxy-N-(3-morpholinopropyl)benzamide] | – | – | 89.2 | 16.5 | 1.6
COc1cc(Nc2cc(Oc3ccc(NC(=O)Nc4cc(C(C)(C)C)cc(NS(C)(=O)=O)c4OC)c4ccccc34)ccn2)ccc1C(=O)NCCO [17(bn), 4-((4-((4-(3-(5-(tert-Butyl)-2-methoxy-3-(methylsulfonamido)phenyl)ureido)naphthalen-1-yl)oxy)pyridin-2-yl)amino)-N-(2-hydroxyethyl)-2-methoxybenzamide] | – | – | 102.8 | 65.6 | 19.5
COc1cc(Nc2cc(Oc3ccc(NC(=O)Nc4cc(C(C)(C)C)cc(NS(C)(=O)=O)c4OC)c4ccccc34)ccn2)ccc1C(=O)NCCOCCOCCC(=O)O [17(x), 3-[2-[2-[[4-[[4-[[4-[[5-tert-butyl-3-(methanesulfonamido)-2-methoxyphenyl]carbamoyl-amino]-1-naphthyl]oxy]-2-pyridyl]amino]-2-methoxy-benzoyl]amino]ethoxy]ethoxy]propanoic acid] | – | – | 95.4 | 94.2 | 38.9
COc1cc(Nc2nccc(Oc3ccc(NC(=O)Nc4cc(C(C)(C)C)cc(NS(C)(=O)=O)c4OC)c4ccccc34)n2)ccc1C(=O)NCCN1CCN(C)CC1 [17(aq), 4-((4-((4-(3-(5-(tert-Butyl)-2-methoxy-3-(methylsulfonamido)phenyl)ureido)naphthalen-1-yl)oxy)pyrimidin-2-yl)amino)-2-methoxy-N-(2-(4-methylpiperazin-1-yl)ethyl)benzamide] | – | – | 95.1 | 0.2 | 1.3
COc1cc(Nc2cc(Oc3ccc(NC(=O)Nc4cc(C(C)(C)C)cc(NS(C)(=O)=O)c4OC)c4ccccc34)ccn2)ccc1C(=O)NCCN1CCN(C(=O)CC[C@H](N)C(=O)O)CC1 [17(cl), (S)-2-Amino-5-(4-(2-(4-((4-((4-(3-(5-(tert-butyl)-2-methoxy-3-(methylsulfonamido)-phenyl)ureido)naphthalen-1-yl)oxy)pyridin-2-yl)amino)-2-methoxybenzamido)ethyl)piperazin-1-yl)-5-oxopentanoic acid] | – | – | 93.6 | 94.0 | 93.7
COc1cc(Nc2cc(Oc3ccc(NC(=O)Nc4cc(C(C)(C)C)cc(NS(C)(=O)=O)c4OC)c4ccccc34)ccn2)ccc1C(=O)NCCC(=O)N1C[C@H](O)[C@@H](O)[C@H](O)[C@H]1CO [17(cf), 4-((4-((4-(3-(5-(tert-Butyl)-2-methoxy-3-(methylsulfonamido)phenyl)ureido)naphthalen-1-yl)oxy)pyridin-2-yl)amino)-2-methoxy-N-(3-oxo-3-((2R,3R,4R,5S)-3,4,5-trihydroxy-2-(hydroxymethyl)piperidin-1-yl)propyl)benzamide] | – | – | 96.7 | 96.7 | 96.8
COc1cc(Nc2cc(Oc3ccc(NC(=O)Nc4cc(C(C)(C)C)cc(NS(C)(=O)=O)c4OC)c4ccccc34)ccn2)ccc1C(=O)NCC[N+]1([O-])CCOCC1 [Example 33, 4-(2-(4-((4-((4-(3-(5-(tert-Butyl)-2-methoxy-3-(methylsulfonamido)phenyl)ureido)naphthalen-1-yl)oxy)pyridin-2-yl)amino)-2-methoxybenzamido)ethyl)morpholine 4-oxide] | – | – | 104.1 | 95.5 | 69.3
COc1cc(Nc2cc(Oc3ccc(NC(=O)Nc4cc(C(C)(C)C)cc(NS(C)(=O)=O)c4OC)c4ccccc34)ccn2)ccc1-n1ccccc1=O [Example 31, N-(5-(tert-Butyl)-2-methoxy-3-(3-(4-((2-((3-methoxy-4-(2-oxopyridin-1 (2H)-yl)phenyl)amino)-pyridin-4-yl)oxy)naphthalen-1-yl)ureido)phenyl)methanesulfonamide] | – | – | 99.9 | 97.6 | 99.0
COc1c(NC(=O)Nc2ccc(Oc3ccnc(Nc4ccc(C(=O)NCCCN5CCOCC5)c(O)c4)c3)c3ccccc23)cc(C(C)(C)C)cc1NS(C)(=O)=O [Example 29, 4-((4-((4-(3-(5-(tert-Butyl)-2-methoxy-3-(methylsulfonamido)phenyl)ureido)naphthalen-1-yl)oxy)pyridin-2-yl)amino)-2-hydroxy-N-(3-morpholinopropyl)benzamide] | – | – | 101.2 | 46.6 | 2.0
COc1cc(Nc2cc(Oc3ccc(NC(=O)Nc4cc(C(C)(C)C)cc(C(=O)NCCO)c4OC)c4ccccc34)ccn2)ccc1C(=O)NCCN1CC[S+]([O-])CC1 [Example 32, 5-(tert-Butyl)-N-(2-hydroxyethyl)-2-methoxy-3-(3-(4-((2-((3-methoxy-4-((2-(1-oxidothiomorpholino)ethyl)carbamoyl)phenyl)amino)pyridin-4-yl)oxy)naphthalen-1-yl)ureido)benzamide] | – | – | 95.4 | 43.1 | 2.5
